Reference: patent US12286443B2, “Bycyclic JAK inhibitors and uses thereof” (Insilico Medicine IP Limited, priority 2019, dated 2025)

Key:
Assay type in all cases: biochemical
JAK1 = target: T1, JAK1 (Homo sapiens, UniProt P23458); test: Inhibition of JAK1 kinase, LANCE Ultra TR-FRET assay; details: 2 nM JAK1, 2x ATP 76 μM, 15 min pre-incubation, 90 min reaction, 23° C.
T1 construct: purchased Invitrogen PV4775
Protocol: (§1) Exemplary compounds were assayed to determine potency in inhibiting activity of JAK1-3 and TYK2 kinases by determining IC50 values.
(§2) The sources of test materials and equipment are as follows: JAK1 (Invitrogen, Cat. No PV4775), JAK2 (Invitrogen, Cat. No PV4210), JAK3 (Invitrogen, Cat. No PV4080), TYK2 (Invitrogen, Cat. No PR8440C), ATP (Sigma, Cat. No. A7699-1G), DMSO (Sigma, Cat. No. D2650), DTT (Sigma, Cat. No. 43815), 384 wells_compound plate (Greiner, Cat. No. 781280), 384 wells_assay plate (Perkin Elmer, Cat. No. 6007299), LANCE Ultra ULight™-JAK-1 peptide (Perkin Elmer, Cat. No. TRF0121), LANCET™ Eu-W1024 Anti-phosphotyrosine (PT66) (Perkin Elmer, Cat. No. AD0069), LANCET™ Detection Buffer(Perkin Elmer, Cat. No. CR97-100).
(§3) The concentrations of test compounds varied from 100 μM to 1.7 nM with 3-fold dilution, 11 points, in duplicates while the concentrations of the reference compound, Tofacitinib, varied from 1 μM to 0.017 nM with 3-fold dilution, 11 points, in duplicates.
(§4) The assay buffer contained 50 mM HEPES (pH 7.5), 0.01% Brij-35, 10 mM MgCl2, 1 mM EDTA, 2 mM DTT. Incubations were carried out at 23° C.
(§5) Prior to the assay, enzyme, peptide substrate and serially diluted test compounds were pre-incubated together in assay buffer (5 μL) for 15 minutes (peptide substrate concentration: 50 nM; JAK enzyme concentrations: 2 nM JAK1; […]; […] and 4 nM TYK2). And the assay was initiated by the addition of 5 μL assay buffer containing 2× final ATP concentration (these are the 2×ATP concentrations: 76 μM JAK1; 24 μM JAK2; 8 μM JAK3 and 30 μM TYK2). Following the 90-minute incubation, antibody conjugated with Eu is dissolved in detection buffer to add into wells and then incubated for 60 minutes. The 10 μL detection buffer contains EDTA to stop the enzymatic reaction. The plate is analyzed by Perkin Elmer Envision on TR-FRET mode. The high ratio of 665/615 represents no inhibition of kinase reaction while the low ratio of 665/615 represents complete inhibition of kinase reaction.
(§6) Curves are fit by XLFIT5 as inhibition rate % vs. log [compound concentration] using 4 parameters logistic model 205.
(§7) In the table, “A” indicates an IC50 of less than 100 nM, “B” indicates an IC50 range from 100 nM to 500 nM; “C” indicates an IC50 range from 500 nM to 2 μM; and “D” indicates an IC50 greater than 2 μM. Also, “na” indicates data is not available.

JAK2 = target: T2, JAK2 (Homo sapiens, UniProt O60674); test: Inhibition of JAK2 kinase, LANCE Ultra TR-FRET assay; details: 2x ATP 24 μM, 15 min pre-incubation, 90 min reaction, 23° C.
T2 construct: purchased Invitrogen PV4210
Protocol: as §1, §2, §3, §4, §5, §6, §7

JAK3 = target: T3, JAK3 (Homo sapiens, UniProt P52333); test: Inhibition of JAK3 kinase, LANCE Ultra TR-FRET assay; details: 2x ATP 8 μM, 15 min pre-incubation, 90 min reaction, 23° C.
T3 construct: purchased Invitrogen PV4080
T3 sequence (P52333 1-1124): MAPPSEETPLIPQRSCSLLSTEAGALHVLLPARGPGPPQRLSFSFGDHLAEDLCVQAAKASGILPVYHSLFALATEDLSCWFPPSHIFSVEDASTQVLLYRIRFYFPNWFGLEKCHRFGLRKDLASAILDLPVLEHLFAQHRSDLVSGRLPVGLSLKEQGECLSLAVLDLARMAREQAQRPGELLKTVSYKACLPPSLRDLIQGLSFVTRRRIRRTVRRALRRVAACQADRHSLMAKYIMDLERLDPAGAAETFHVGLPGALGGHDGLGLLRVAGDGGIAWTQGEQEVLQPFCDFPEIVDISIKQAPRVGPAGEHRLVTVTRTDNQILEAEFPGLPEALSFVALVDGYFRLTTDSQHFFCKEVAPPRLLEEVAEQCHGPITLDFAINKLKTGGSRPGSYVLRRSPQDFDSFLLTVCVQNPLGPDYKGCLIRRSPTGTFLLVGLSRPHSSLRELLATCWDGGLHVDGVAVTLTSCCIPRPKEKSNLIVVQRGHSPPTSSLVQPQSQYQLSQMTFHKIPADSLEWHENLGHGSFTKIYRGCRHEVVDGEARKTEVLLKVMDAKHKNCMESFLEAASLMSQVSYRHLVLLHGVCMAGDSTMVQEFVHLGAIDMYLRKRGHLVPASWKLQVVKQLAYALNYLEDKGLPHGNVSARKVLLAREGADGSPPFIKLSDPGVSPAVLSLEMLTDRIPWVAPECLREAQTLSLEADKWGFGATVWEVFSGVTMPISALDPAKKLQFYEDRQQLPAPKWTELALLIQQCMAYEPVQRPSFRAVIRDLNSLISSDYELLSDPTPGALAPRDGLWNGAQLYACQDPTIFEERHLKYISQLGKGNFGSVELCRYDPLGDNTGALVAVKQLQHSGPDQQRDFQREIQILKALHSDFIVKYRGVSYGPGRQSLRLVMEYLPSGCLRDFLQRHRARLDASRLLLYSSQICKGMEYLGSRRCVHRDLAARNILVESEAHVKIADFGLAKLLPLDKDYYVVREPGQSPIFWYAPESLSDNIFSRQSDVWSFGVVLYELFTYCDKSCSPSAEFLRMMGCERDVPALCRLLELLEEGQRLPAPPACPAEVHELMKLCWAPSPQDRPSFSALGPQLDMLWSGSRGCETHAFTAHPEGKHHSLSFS
Protocol: as §1, §2, §3, §4, §5, §6, §7

TYK2 = target: T4, TYK2 (Homo sapiens, UniProt P29597); test: Inhibition of TYK2 kinase, LANCE Ultra TR-FRET assay; details: 4 nM TYK2, 2x ATP 30 μM, 15 min pre-incubation, 90 min reaction, 23° C., read-out: tyk IC50
T4 construct: purchased Invitrogen PR8440C
Protocol: as §1, §2, §3, §4, §5, §6, §7

T4 sequence (P29597 whole entry): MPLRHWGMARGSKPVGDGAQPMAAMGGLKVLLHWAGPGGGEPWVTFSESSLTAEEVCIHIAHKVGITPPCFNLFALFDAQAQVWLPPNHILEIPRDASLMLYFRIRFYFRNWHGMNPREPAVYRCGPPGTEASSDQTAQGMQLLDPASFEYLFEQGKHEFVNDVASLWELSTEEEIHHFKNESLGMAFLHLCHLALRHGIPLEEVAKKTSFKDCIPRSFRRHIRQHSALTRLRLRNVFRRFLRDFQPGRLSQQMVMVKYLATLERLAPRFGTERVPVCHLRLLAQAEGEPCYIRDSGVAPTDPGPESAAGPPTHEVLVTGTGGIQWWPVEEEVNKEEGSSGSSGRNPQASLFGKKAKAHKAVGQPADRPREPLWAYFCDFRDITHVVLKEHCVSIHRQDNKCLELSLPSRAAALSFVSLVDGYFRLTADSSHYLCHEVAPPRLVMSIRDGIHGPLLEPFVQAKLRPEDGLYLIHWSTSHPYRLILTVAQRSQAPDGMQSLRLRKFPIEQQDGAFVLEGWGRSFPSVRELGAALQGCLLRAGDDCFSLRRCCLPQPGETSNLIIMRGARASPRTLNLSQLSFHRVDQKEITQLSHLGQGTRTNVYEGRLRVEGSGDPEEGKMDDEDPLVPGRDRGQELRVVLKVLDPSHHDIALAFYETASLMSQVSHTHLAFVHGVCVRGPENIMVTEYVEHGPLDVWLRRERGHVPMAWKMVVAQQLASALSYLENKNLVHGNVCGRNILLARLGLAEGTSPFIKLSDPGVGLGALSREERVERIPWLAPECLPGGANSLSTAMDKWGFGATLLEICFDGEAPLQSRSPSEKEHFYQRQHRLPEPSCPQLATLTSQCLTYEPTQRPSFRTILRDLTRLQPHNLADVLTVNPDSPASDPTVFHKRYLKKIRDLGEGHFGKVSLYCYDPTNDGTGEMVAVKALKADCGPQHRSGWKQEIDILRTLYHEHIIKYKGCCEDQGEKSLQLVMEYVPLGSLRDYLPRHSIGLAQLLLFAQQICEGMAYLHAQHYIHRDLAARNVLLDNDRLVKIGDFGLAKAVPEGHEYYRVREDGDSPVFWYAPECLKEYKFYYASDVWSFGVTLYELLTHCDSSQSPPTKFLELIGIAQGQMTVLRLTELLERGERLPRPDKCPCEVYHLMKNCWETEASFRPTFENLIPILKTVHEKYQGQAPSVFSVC
T1 sequence (P23458 whole entry): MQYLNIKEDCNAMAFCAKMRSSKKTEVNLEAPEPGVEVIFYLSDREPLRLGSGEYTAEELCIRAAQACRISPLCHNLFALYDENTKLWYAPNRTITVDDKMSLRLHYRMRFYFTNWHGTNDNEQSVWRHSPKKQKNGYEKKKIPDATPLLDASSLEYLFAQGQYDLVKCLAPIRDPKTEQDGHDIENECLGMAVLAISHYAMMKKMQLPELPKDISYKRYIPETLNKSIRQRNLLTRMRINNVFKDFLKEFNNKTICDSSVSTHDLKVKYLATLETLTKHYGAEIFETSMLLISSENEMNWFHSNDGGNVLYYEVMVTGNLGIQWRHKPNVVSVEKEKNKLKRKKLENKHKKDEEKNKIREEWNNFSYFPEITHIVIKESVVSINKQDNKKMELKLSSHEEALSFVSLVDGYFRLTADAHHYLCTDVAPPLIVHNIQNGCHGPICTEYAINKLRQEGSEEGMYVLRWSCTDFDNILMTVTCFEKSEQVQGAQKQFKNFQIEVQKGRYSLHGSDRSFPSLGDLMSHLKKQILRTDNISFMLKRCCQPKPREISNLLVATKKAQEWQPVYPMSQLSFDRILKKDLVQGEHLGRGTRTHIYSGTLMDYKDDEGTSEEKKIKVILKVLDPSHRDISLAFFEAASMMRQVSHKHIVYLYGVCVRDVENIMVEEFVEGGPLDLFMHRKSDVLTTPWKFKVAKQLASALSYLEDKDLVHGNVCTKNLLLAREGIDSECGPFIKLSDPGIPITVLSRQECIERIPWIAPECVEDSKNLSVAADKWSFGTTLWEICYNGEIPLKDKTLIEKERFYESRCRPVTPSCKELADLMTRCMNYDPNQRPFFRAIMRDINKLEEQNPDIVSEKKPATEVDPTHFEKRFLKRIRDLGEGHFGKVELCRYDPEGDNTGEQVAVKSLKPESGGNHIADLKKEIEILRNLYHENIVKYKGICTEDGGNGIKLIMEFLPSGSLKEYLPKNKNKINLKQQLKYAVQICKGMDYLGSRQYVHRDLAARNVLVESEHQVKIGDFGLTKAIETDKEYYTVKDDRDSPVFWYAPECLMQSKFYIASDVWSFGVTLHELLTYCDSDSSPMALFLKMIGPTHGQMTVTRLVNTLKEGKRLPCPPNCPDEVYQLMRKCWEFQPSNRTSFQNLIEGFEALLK
T2 sequence (O60674 whole entry): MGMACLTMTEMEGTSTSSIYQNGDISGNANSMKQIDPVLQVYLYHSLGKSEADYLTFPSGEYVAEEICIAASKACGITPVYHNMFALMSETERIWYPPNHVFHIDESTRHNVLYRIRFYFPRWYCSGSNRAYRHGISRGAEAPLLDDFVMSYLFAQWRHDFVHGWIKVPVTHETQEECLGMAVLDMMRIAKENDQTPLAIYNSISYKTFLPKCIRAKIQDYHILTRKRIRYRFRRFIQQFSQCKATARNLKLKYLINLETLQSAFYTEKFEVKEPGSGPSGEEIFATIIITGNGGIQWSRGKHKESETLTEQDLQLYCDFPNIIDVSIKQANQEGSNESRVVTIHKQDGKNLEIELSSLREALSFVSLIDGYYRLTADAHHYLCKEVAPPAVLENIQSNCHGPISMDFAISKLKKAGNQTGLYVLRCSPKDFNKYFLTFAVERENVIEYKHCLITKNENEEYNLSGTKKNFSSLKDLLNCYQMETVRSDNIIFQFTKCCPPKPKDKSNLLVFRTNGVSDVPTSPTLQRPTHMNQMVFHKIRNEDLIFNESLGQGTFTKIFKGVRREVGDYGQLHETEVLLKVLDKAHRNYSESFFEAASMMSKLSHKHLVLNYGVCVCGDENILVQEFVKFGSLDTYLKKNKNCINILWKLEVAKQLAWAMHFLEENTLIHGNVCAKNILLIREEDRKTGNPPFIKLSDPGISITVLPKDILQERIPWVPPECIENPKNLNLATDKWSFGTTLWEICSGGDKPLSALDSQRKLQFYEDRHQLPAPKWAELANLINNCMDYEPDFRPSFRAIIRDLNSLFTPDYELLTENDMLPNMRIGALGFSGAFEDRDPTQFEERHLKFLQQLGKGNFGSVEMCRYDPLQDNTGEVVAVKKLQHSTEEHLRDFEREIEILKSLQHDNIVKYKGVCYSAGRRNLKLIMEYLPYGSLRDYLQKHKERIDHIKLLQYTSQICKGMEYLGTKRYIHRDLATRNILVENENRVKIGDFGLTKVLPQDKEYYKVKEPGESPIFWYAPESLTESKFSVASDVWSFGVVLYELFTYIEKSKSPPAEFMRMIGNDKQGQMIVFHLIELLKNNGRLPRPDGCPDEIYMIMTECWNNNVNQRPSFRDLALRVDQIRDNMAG

| SMILES | IC50 (JAK1) | IC50 (JAK2) | IC50 (JAK3) | IC50 (TYK2) |
| --- | --- | --- | --- | --- |
| O=C(NCCCC1(O)CC1)c1noc2c1CN(c1ncnc3[nH]ccc13)CC2 [Compound 144] | 100 to 500 nM | 100 to 500 nM | < 100 nM | > 2000 nM |
| O=C(NCCN1CCOCC1)c1noc2c1CN(c1ncnc3[nH]ccc13)CC2 [Compound 162] | > 2000 nM | > 2000 nM | 500 to 2000 nM | > 2000 nM |
| O=C(NCCC(F)(F)F)c1nn(CCCc2ccccc2)c2c1CN(c1ncnc3[nH]ccc13)CC2 [Compound 115] | 500 to 2000 nM | > 2000 nM | 100 to 500 nM | > 2000 nM |
| O=C(NCCC1COC1)c1noc2c1CN(c1ncnc3[nH]ccc13)CC2 [Compound 146] | 100 to 500 nM | 500 to 2000 nM | 100 to 500 nM | > 2000 nM |
| O=C(NCC(CO)C(F)(F)F)c1noc2c1CN(c1ncnc3[nH]ccc13)CC2 (centres unmarked) [Compound 151] | < 100 nM | < 100 nM | < 100 nM | 500 to 2000 nM |
| CCS(=O)(=O)NC(=O)[C@H]1C[C@H](NC(=O)c2nn(C)c3c2CN(c2ncnc4[nH]ccc24)CC3)C1 [Compound 126] | 100 to 500 nM | 500 to 2000 nM | 100 to 500 nM | > 2000 nM |
| O=C(NCCC(F)(F)F)c1nn(C2CCOCC2)c2c1CN(c1ncnc3[nH]ccc13)CC2 [Compound 118] | 500 to 2000 nM | > 2000 nM | 100 to 500 nM | > 2000 nM |
| O=C(NCCC1CC(F)(F)C1)c1noc2c1CN(c1ncnc3[nH]ccc13)CC2 [Compound 148] | 100 to 500 nM | 500 to 2000 nM | 100 to 500 nM | > 2000 nM |
| O=C(NCCC(F)(F)F)c1noc2c1CN(c1ncnc3[nH]ncc13)CC2 [Compound 189] | 100 to 500 nM | > 2000 nM | 100 to 500 nM | > 2000 nM |
| Cn1nc(C(=O)NCCC(F)(F)F)c2c1CCN(c1ncnc3[nH]ccc13)C2 [Compound 107] | < 100 nM | 100 to 500 nM | < 100 nM | 500 to 2000 nM |
| CS(=O)(=O)N1CCC(CNC(=O)c2noc3c2CN(c2ncnc4[nH]ccc24)CC3)C1 (centres unmarked) [Compound 166] | 500 to 2000 nM | 500 to 2000 nM | 100 to 500 nM | > 2000 nM |
| O=C(NCCC(F)(F)F)c1noc2c1CN(c1ncnc3[nH]cnc13)CC2 [Compound 188] | 100 to 500 nM | 500 to 2000 nM | 100 to 500 nM | > 2000 nM |
| O=C(NCCCC(F)(F)F)c1noc2c1CN(c1ncnc3[nH]ccc13)CC2 [Compound 154] | 100 to 500 nM | 100 to 500 nM | < 100 nM | > 2000 nM |
| O=C(NC[C@@H]1CC[C@H]1O)c1noc2c1CN(c1ncnc3[nH]ccc13)CC2 (relative stereo) [Compound 150-1] | 500 to 2000 nM | 500 to 2000 nM | 100 to 500 nM | > 2000 nM |
| O=C(NCC1CCC1O)c1noc2c1CN(c1ncnc3[nH]ccc13)CC2 (centres unmarked) [Compound 150] | 100 to 500 nM | 100 to 500 nM | < 100 nM | > 2000 nM |
| O=C(NCCC1CC1)c1n[nH]c2c1CN(c1ncnc3[nH]ccc13)CC2 [Compound 138] | 100 to 500 nM | 100 to 500 nM | < 100 nM | 500 to 2000 nM |
| CN(C)S(=O)(=O)CCNC(=O)c1noc2c1CN(c1ncnc3[nH]ccc13)CC2 [Compound 156] | 100 to 500 nM | 100 to 500 nM | 100 to 500 nM | > 2000 nM |
| N#Cc1ccc(-c2nn(CCO)c3c2CN(c2ncnc4[nH]ccc24)CC3)cc1 [Compound 120] |  | 100 to 500 nM | 500 to 2000 nM |  |
| CNC(=O)[C@H]1C[C@H](NC(=O)c2nn(C)c3c2CN(c2ncnc4[nH]ccc24)CC3)C1 [Compound 122] | > 2000 nM | > 2000 nM | > 2000 nM | > 2000 nM |
| O=C(NCCC(F)(F)F)n1ccc2c1CN(c1ncnc3[nH]ccc13)CC2 [Compound 132] | 100 to 500 nM | 500 to 2000 nM | 500 to 2000 nM | > 2000 nM |
| O=C(NCCC(F)(F)F)c1nn(C2CCC2)c2c1CN(c1ncnc3[nH]ccc13)CC2 [Compound 117] | 100 to 500 nM | 500 to 2000 nM | < 100 nM | > 2000 nM |
| O=C(NCCC1(F)COC1)c1noc2c1CN(c1ncnc3[nH]ccc13)CC2 [Compound 147] | 100 to 500 nM | 100 to 500 nM | 100 to 500 nM | > 2000 nM |
| O=C(NCCC(F)(F)F)C1=NOC2CN(c3ncnc4[nH]ccc34)CC12 (centres unmarked) [Compound 187] | 100 to 500 nM | 500 to 2000 nM | 100 to 500 nM | > 2000 nM |
| O=C(NCCCC1(O)CC1)c1noc2c1CN(c1ncnc3[nH]ccc13)CC2 [Compound 145] | 100 to 500 nM | 500 to 2000 nM | 100 to 500 nM | > 2000 nM |
| O=C(NCCC(F)(F)F)c1nn(C2CCNCC2)c2c1CN(c1ncnc3[nH]ccc13)CC2 [Compound 101] | > 2000 nM | > 2000 nM | 500 to 2000 nM | > 2000 nM |
| CCn1nc(C(=O)NCCC(F)(F)F)c2c1CCN(c1ncnc3[nH]ccc13)C2 [Compound 112] | 100 to 500 nM | 500 to 2000 nM | < 100 nM | > 2000 nM |
| CS(=O)(=O)N1CCC(CCNC(=O)c2noc3c2CN(c2ncnc4[nH]ccc24)CC3)C1 (centres unmarked) [Compound 165] | > 2000 nM | > 2000 nM | > 2000 nM | > 2000 nM |
| O=C(NCCC1CCCC1)c1noc2c1CN(c1ncnc3[nH]ccc13)CC2 [Compound 158] | 100 to 500 nM | 100 to 500 nM | < 100 nM | > 2000 nM |
| CS(=O)(=O)N1CCN(CCNC(=O)c2noc3c2CN(c2ncnc4[nH]ccc24)CC3)CC1 [Compound 167] | 100 to 500 nM | 500 to 2000 nM | 100 to 500 nM | > 2000 nM |
| CCn1nc(C(=O)CC#N)c2c1CCN(c1ncnc3[nH]ccc13)C2 [Compound 119] |  | 500 to 2000 nM | 500 to 2000 nM |  |
